Laboratory results reported in patent publication US5487899A, “Wound healing” (Jess Clarke & Sons, Inc., priority 1994, dated 1996).

Assays:
[1] = system: croton oil-induced ear swelling; assay: croton oil-induced ear swelling (Example 4); format: in vivo, ICR-HSD mice; settings: Aspirin 100 μg, topical, 6 h
Protocol: Four groups (10 mice per group) of adult male ICR-HSD mice was given topically 25 μg/per 10 μl croton oil solutions. This irritant was applied to the inner surface of the animal's right ear, and the left ear was not treated and used as a control. One-half hour after the application of the croton oil irritant, solutions were added topically to reduce inflammation; the solutions were 1% aspirin, 2% Aloe and a solution that had both aspirin and aloe.
Six hours after the topical application of croton oil solutions, a 6 mm biopsy punch specimen was taken from each ear, weighed, and the weight differences between the two were compared to determine the amount of inflammation remaining on the right ear.

open wounds = assay: Open wound healing assay (Example 5); format: in vivo, ICR mice; settings: daily subcutaneous, Saline control 60.0 ± 8.3
Protocol: Adult male ICR mice (30 g, 15 animals/group) were anesthetized with ether and shaved on both sides of the back. A sterile 6 mm Baker biopsy punch was used to induce a wound on each side of the vertebral column. Anterior-posterior wound diameter measurements were made using a vernier caliper on days 0, 4 and 7. Three treatment groups received daily subcutaneous injections of a gibberellic acid (GA3) solution at dosages of 2, 10 and 100 mg/Kg, respectively. Control mice received daily injections of saline on a 10 ml/Kg basis. Standard errors for each mean value was calculated. The student's "t" test was used to determine significant differences between treatment and control groups. An analysis of variance (ANOVA) was also calculated to determine the statistical significance of the study as a whole, and gave a Fisher ratio at 16.48 which is significant at p<0.001.

wound = assay: Wound tensile strength assay (Example 6); format: in vivo,  mice; settings: 50 mg/kg (each) × 4, subcutaneous, 6 h after day 4 injection
Protocol: While tensile strength of wounds is measured in terms of the load applied per unit of cross section area, the breaking strength is the measure of force required to break a wound of tissue without regard to dimensions. While tensile strength is not a function of the incision length, breaking strength is. The measurements of force required to pull a wound apart differ chiefly in the manner in which the force is applied and the sophistication of the force measurement. In the data recorded herein and in the data collected in the making of the present invention, we used a conventional plastic syringe calibrated to measure […] of air injected into the peritoneal cavity of the mouse. […] Elastic bands are first placed on over the shoulders and hips of the animal to contain the injected air into a defined area of the body and to reduce error involving underlying tissue of the peritoneal cavity, and air is injected into the animal until the wound is disrupted at which time the volume of air is recorded. […]
Each wound was closed with a 9 mm wound clip at 0.25-inch spacings for a total of 3 clips per wound. […] Six hours after the day 4 injection, the tensile strength of wounds was measured by injecting air into the peritoneal cavity from a syringe as described above.

With `CC(=O)Oc1ccccc1C(=O)O` [Aspirin] the “Inhibition (%) of croton oil-induced ear swelling” value [1] was 23.7 ± 3.1%.
For `C=C1C[C@]23C[C@@]1(O)CC[C@H]2[C@@]12C=C[C@H](O)[C@@](C)(C(=O)O1)[C@H]2[C@@H]3C(=O)O` [Gibberellin, gibberellic acid], the “decrease (%) in wound diameter” value (open wounds; 2 mg/kg) was 65.3 ± 11.3%, the “decrease (%) in wound diameter” value (open wounds; 10 mg/kg) was 71.6 ± 12.1% and the “decrease (%) in wound diameter” value (open wounds; 100 mg/kg) was 81.7 ± 7.0%. The “increase (%) in wound tensile strength” value (wound) was 36.1 ± 1.5%.
